Consider one molecule from patent publication US20260158016A1, “HALOPERIDOL DERIVATIVES, PHARMACEUTICAL COMPOSITION COMPRISING SAID DERIVATIVES, AND THERAPEUTIC USES THEREOF” (University of Virginia Patent Foundation, priority 2023, published 2026).

Entries after “also recorded” stand apart in the source; their conditions may differ.

One data set concerns dry AMD. Kind of data set: Health insurance claims database analysis (PearlDiver Mariner): risk of developing dry AMD by haloperidol exposure. The note with it: for Hazard Ratio of developing dry AMD (adjusted hazard ratio): adjusted Cox proportional hazards regression, propensity-score-matched, patients with schizophrenia or Tourette's disorder aged 50 or older. It counts as in vivo, human. From the text:
The retrospective study used claims data from the PearlDiver Mariner database, which contains data on health care claims and medication usage for persons in provider networks over the time period 2010 to the second quarter of 2018.
Patients were included in the analysis if they had continuous enrollment in the plan for at least 1 year and were at least 50 years of age at baseline. Individuals with pre-existing dry AMD (≥1 medical claims prior to diagnosis of schizophrenia or Tourette's disorder) were excluded. Disease claims were identified by International Classification of Diseases (ICD)-9-CM and ICD-10-CM codes.
Exposure to haloperidol—the independent variable—was determined by whether patients filled ≥1 outpatient pharmacy prescriptions for generic or brand versions, either in sole form or as a combination medication, as identified by National Drug Codes.
Time to initial diagnosis of dry AMD was the dependent variable.
Analyses were performed with the use of R software, version 4.2.2 (the R project (www.r-project.org)). To analyze the risk of dry AMD between haloperidol users and haloperidol non-users, an adjusted Cox proportional hazards regression analysis was performed, and the hazard ratio was analyzed by the likelihood ratio test. […] This adjusted model included confounding covariates that influence dry AMD risk: age, sex, smoking, body mass index, and Charlson comorbidity index. Kaplan-Meier survival plots were analyzed by log rank test. Statistical tests were 2-sided. P values <0.05 were considered statistically significant.
To evaluate the robustness of the findings and mitigate any possible residual confounding, we estimated propensity-score models including use of haloperidol and no use of haloperidol. The individual propensities for starting haloperidol treatment were estimated with the use of logistic regression. […] We used the R package MatchIt to perform matching in a 1:1 ratio using greedy nearest neighbor matching. In addition, to control for any residual covariate imbalance, we estimated the relative hazard in the propensity score-matched groups using the multivariable Cox models that included the covariates from the multivariable regression analysis employed for the original unmatched group analyses. Statistical tests were two-sided. P values <0.05 were considered statistically significant.
We performed a retrospective, longitudinal cohort analysis in the PearlDiver Mariner database (comprising 150 million Americans from 2010 to 2018) among patients with schizophrenia or Tourette's disorder (the population that would be exposed to haloperidol or other anti-psychotics) aged 50 or older (the population at risk) to assess the risk of dry AMD.

Data set [1] concerns IL-1β secretion by THP-1 cells. Kind of data set: Inflammasome activation: IL-1β secretion ELISA in LPS and ATP stimulated THP-1 cells. It counts as cell-based, human. The settings on record: LPS 125 ng/ml 4 h + ATP 5 mM 30 min, haloperidol pretreatment 1 h, P<0.05 vs vehicle. The protocol: Human THP-1 cells were stimulated with LPS (125 ng/ml) for 4 h and ATP (5 mM) for 30 min. For all experiments, cells were pretreated with haloperidol (1, 10, or 100 μM) for 1 h and again after the activating stimuli. Secreted human […] in the conditioned cell culture media was detected using an ELISA kit (R&D Systems) according to the manufacturer's instructions. Mean and SEM values are presented.
Haloperidol was tested for inhibition of inflammasome activation. Inflammasome activation was assessed in human THP-1 monocytes by measuring IL-1ß secretion via ELISA.

Data set [2] has as its system Alu RNA-induced RPE degeneration. As to the kind of experiment: Alu RNA-induced RPE degeneration in mice (ZO-1 stained RPE flat mounts). It counts as in vivo, C57BL/6J mice. The protocol:
C57BL/6J mice (The Jackson Laboratory) were anesthetized with ketamine hydrochloride and xylazine. In vitro-transcribed Alu RNA (300 ng in 1 μL) was injected subretinally to induce RPE degeneration (Kaneko, 2011). Various doses of haloperidol (Sigma Aldrich; 1-500 ng in 0.5 μL) or PBS (vehicle) was injected into the vitreous humor 24 h before and immediately after Alu RNA injection. Alternatively, various doses of haloperidol (2-10 μg) were administered via intraperitoneal administration on days 1 through 6 after Alu RNA injection. Animals were euthanized 7 days after Alu RNA injection, and the eyes were enucleated.
RPE health was assessed by immunofluorescence staining of zonula occludens-1 (ZO-1) on RPE flat mounts. Flat mounts were fixed with 2% PFA, stained with rabbit polyclonal antibodies against mouse ZO-1 (Invitrogen), visualized with Alexa Fluor 594 (Invitrogen), and imaged (A1R Nikon). Images were graded as healthy or degenerated in masked fashion as previously described (Kerur, 2018). Proportions of eyes with degeneration were compared using Fisher's exact test.

For data set [3] the following is noted: patients taking haloperidol (Coryell, 1998); cited from earlier work.

As for `O=C(CCCN1CCC(O)(c2ccc(Cl)cc2)CC1)c1ccc(F)cc1` [haloperidol], the “rate of developing dry AMD (Kaplan-Meier survival analysis)” value in the data set on dry AMD (Mariner database, log-rank test P<0.001) is recorded as “significantly slower rate”. Also, the “Hazard Ratio of developing dry AMD (adjusted hazard ratio)” value in the data set on dry AMD (Mariner database) amounted to 0.747; with dry AMD (Mariner database, listed as Haloperidol), 0.7468. In addition, the “reduced hazard of developing dry AMD” value with dry AMD (haloperidol exposure vs nonexposure, Mariner, adjusted Cox model) is 25%. In addition, the “IL-1β secretion (inflammasome activation)” value in data set [1] was “reduced; also recorded: inhibits”. For the same molecule, in data set [2] (5 ng haloperidol intravitreous, 24 h before and immediately after subretinal Alu RNA, assessed day 7), the “eyes protected against RPE degeneration” value is listed as 70%. In data set [2] (daily intraperitoneal injection at 2 μg, 5 μg, or 10 μg, days 1 through 6 after Alu RNA), the “protection against RPE degeneration” value is given as 70-80%. The “dose with maximal protective effect against RPE degeneration” value in data set [2] (intravitreous dose-ranging 1 ng to 500 ng) is 5 ng. In data set [2] (subretinal Alu RNA, intravitreous or intraperitoneal haloperidol (FIG. 3)), the “Alu RNA-induced RPE degeneration (qualitative)” value was “blocked”. In addition, the serum concentration entry in data set [3] is recorded as “exceeding 20 ng/ml”.
